# Assay results taken from US20230293464A1, “TREATMENT OF PANCREATIC DUCTAL ADENOCARCINOMA WITH MIRDAMETINIB” (SpringWorks Therapeutics Inc., priority 2022, published 2023).
# Columns and labels:
# [1] = system: PDAC cells; experiment: Vacuole formation on apilimod treatment; format: cell-based; settings: FIG. 3A
# Source text: Cells were fixed and stained with EEA1 and LAMP1 antibodies and analyzed with confocal microscopy.
# [2] = system: PDAC cell lines; experiment: Autophagic flux, mCherry-EGFP-LC3B autophagy reporter (flow cytometry, confocal imaging); format: cell-based; settings: panel of PDAC cell lines, 24-hours treatment
# Description: Autophagic flux was determined using flow cytometry. […] Live cell imaging was performed using confocal microscopy. FIG. 1D indicates the threshold of fluorescent intensity was set to include puncta and exclude cytosolic green and background fluorescence. Green and red puncta were quantified from FIG. 1C and plotted.
Compound,vacuole formation [1],autophagic flux [2]
Cc1cccc(/C=N/Nc2cc(N3CCOCC3)nc(OCCc3ccccn3)n2)c1 [apilimod],dose-dependent vacuole formation,–
"O=C(NOC[C@H](O)CO)c1ccc(F)c(F)c1Nc1ccc(I)cc1F (single isomer, unassigned) [mirdametinib]",–,substantially induced autophagic flux
